The results in this text go back to patent US8969573B2, “Compounds for the inhibition of cellular proliferation” (President and Fellows of Harvard College, priority 2010, dated 2015).

By IC50 is commonly meant the midpoint of a concentration-inhibition curve.

Read-outs that look alike come from different tables or passages of the source. Where only a bound is given, the exact number is not on record here.

One test deals with eIF4E (Homo sapiens, UniProt P06730). As to the kind of experiment: NMR binding experiments (titration with protein).
Test [1] has as its system CRL2351 human breast cancer. As to the kind of experiment: SRB assay (inhibition of cell proliferation). To be noted: CRL2351 human breast cancer cells, summary table, read-out: IC50 [μM} CRL2351. Format: cell-based. (The SRB assay estimates cell density from bound dye.)
The next test deals with CRL2813 human melanoma. As to the kind of experiment: SRB assay (inhibition of cell proliferation). Format: cell-based. Particulars: summary table, read-out: IC50 [μM} CRL2813.
The target in another test is eIF4E/eIF4G interaction (Homo sapiens, UniProt P06730). As to the kind of experiment: Fluorescent polarization assay. Format: binding. To be noted: FITC eIF4G peptide and recombinant eIF4E, ratio to Z (4EGI-1 = 1). As for the experimental part: The difference between the two measurement yields net polarization which is considered full signal of the assay (100% control). […] The activity of compound at each concentration is determined by comparing the fluorescent polarization (FP) signal in the presence of compound to the control (no compound) value. The percent inhibition is =100-((FP compound/FP control)*100).

The mark [2] stands for this setting: Homo sapiens, CRL2813, CRL2813 human melanoma cells.

eIF4E, sequence (P06730 27-217 limits assumed): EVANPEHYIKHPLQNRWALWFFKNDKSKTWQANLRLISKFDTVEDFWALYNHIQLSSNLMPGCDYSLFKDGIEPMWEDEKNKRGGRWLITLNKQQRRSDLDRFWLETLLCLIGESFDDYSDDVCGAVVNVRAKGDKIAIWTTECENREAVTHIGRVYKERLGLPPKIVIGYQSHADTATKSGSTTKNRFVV
eIF4E/eIF4G interaction, sequence (P06730 whole entry): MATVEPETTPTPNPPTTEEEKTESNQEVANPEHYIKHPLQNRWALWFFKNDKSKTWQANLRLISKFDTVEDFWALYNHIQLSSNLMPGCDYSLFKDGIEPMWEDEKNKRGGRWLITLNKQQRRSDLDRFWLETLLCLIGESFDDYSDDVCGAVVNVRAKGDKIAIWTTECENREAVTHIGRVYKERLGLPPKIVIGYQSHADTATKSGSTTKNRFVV

`O=C(O)C(Cc1ccc(O)cc1)=NNc1nc(-c2cccc([N+](=O)[O-])c2)cs1` [KY-A6]: at eIF4E, the IC50 was ~5 µM.

Regarding `O=C(O)[C@H](Cc1ccccc1[N+](=O)[O-])Nc1nc(-c2ccc(Cl)c(Cl)c2)cs1` [KY-549], the IC50 on eIF4E was ~7 µM.

For the molecule `O=C(O)C(Cc1ccccc1[N+](=O)[O-])NNc1nc(-c2ccc(Cl)c(Cl)c2)cs1` (stereo not shown) [KY-720], the IC50 at eIF4E was ~4 µM.

Take `COc1ccc(-c2nc(NN=C(Cc3ccccc3[N+](=O)[O-])C(=O)O)sc2-c2ccc(-n3cc(CO)nn3)cc2)cc1` [KY-383, 2-{[5-[4-(4-hydroxymethyl-[1,2,3]triazol-1-yl)-phenyl]-4-(4-methoxy-phenyl)-thiazol-2-yl]-hydrazono}-3-(2-nitro-phenyl)-propionic acid]: the half-maximal inhibitory concentration (IC50) was > 20 µM in test [1] (Homo sapiens), 13 ± 3.6 µM with CRL2813 human melanoma (setting [2]) and ~3 µM on eIF4E. The “Fp (ratio to Z)” value on eIF4E/eIF4G interaction was 2.3.

Take `COc1ccc(-c2nc(N/N=C(\Cc3ccccc3[N+](=O)[O-])C(=O)O)sc2-c2ccc(-c3ccccc3)cc2)cc1` [KY-435-F]: the IC50 came to 2.8 ± 0.73 µM in test [1] and 3 ± 0.56 µM in the test with CRL2813 human melanoma (CRL2813 human melanoma cells). For the same molecule, the “Fp (ratio to Z)” value on eIF4E/eIF4G interaction worked out at 0.5.

With `NC(=O)/C(Cc1ccccc1[N+](=O)[O-])=N/Nc1nc(-c2ccc(Cl)c(Cl)c2)cs1` [KY-725], the 50% inhibitory concentration (IC50) (in test [1] (Homo sapiens); with CRL2813 human melanoma (setting [2])) was 3 µM each time. Further, the “Fp (ratio to Z)” value at eIF4E/eIF4G interaction worked out at 0.7.

As to `COc1ccc(-c2nc(NN=C(Cc3ccccc3[N+](=O)[O-])C(=O)O)sc2-c2ccc(Cl)cc2)cc1OC` [KY-353PR], the half-maximal inhibitory concentration (IC50) (in test [1] (Homo sapiens); with CRL2813 human melanoma (setting [2])) was > 20 µM throughout. For the same molecule, the “Fp (ratio to Z)” value at eIF4E/eIF4G interaction was determined as 0.7.

Take `COc1ccc(-c2nc(NN=C(Cc3ccccc3[N+](=O)[O-])C(=O)O)sc2-c2ccc(N=[N+]=[N-])cc2)cc1` [KY-379S]: the results for the half-inhibitory concentration (IC50) (in test [1] (Homo sapiens); in the test on CRL2813 human melanoma (setting [2])) were 1.2 ± 0.04 µM and 3 ± 0.2 µM, respectively. In addition, the “Fp (ratio to Z)” value on eIF4E/eIF4G interaction was 1.2.
